The results in this text go back to ChEMBL document CHEMBL1129699, “Synthesis of furo[2,3-c]pyran--D-thymidine” (Bioorg Med Chem Lett, 1996).

The term CC50 denotes the concentration that lowers cell viability or growth by half. Low values mean greater toxicity to the cells, high ones lower toxicity to the cells. A word on the IC50: it is the concentration that inhibits the measured activity by half. A higher IC50 goes with weaker potency in that assay.

The subject of assay [1] is CEM-SS. The experiment in a line: Compound was tested in vitro for its cytotoxicity in CEM-SS cells. Format: functional. To be noted: Homo sapiens.
Assay [2] deals with CEM-SS. Description: Compound was tested in vitro for its anti-HIV activity in CEM-SS cells. The settings on record: Homo sapiens. Format: functional, cell-based.

Molecules are shown by their SMILES.

In turn, `Cc1cn(C2CC3CC(C)OCC3(CO)O2)c(=O)[nH]c1=O` (centres undefined) came in with a half-maximal cytotoxic concentration (CC50) in the assay with CEM-SS [1] above 100 µM. Further, the 50% inhibitory concentration (IC50) in the assay on CEM-SS [2] is above 100 µM.

As for `Cc1cn(C2CC3CC(CI)OCC3(CO)O2)c(=O)[nH]c1=O` (centres undefined), the CC50 with CEM-SS [1] is above 100 µM. For the same compound, the IC50 in the assay on CEM-SS [2] was above 100 µM.
